Columns and labels:
recombinant NME1–4 = experiment: nucleoside diphosphate kinase activity assay (ATP production from ADP and GTP, Kinase-GLO); format: biochemical; conditions: in vitro
Procedure: To evaluate whether KV-50 binding affects NME activity, we performed enzyme activity assays using recombinant NME1–4. The assay measured NME-catalyzed production of ATP from ADP (150 μM) and GTP (150 μM).
Nucleotide diphosphate kinase activity assays. The phosphotransfer activity of the NDPKs (NME1-4) was measured in a reaction mixture containing buffer A (20 mM Tris-HCl pH 8.0, 150 mM NaCl, and 1 mM MgCl2). All the samples were pipetted in replicates on a 384 well plate. One volume of the respective NDPK protein solution (NME1-4) was added from stock proteins (diluted in buffer a to a concentration of 300 pM) to the wells in four replicates. To these wells, one volume of the inhibitors (Six dilutions were prepared, starting with a 30 µM stock solution and then performing three-fold serial dilutions) was added and incubated at room temperature for 30 minutes. Then, one volume of the substrate mixture (300 μM GTP and 30 μM ADP) was added to the protein-inhibitor mixture-containing wells and incubated at room temperature for 30 minutes. Finally, three volumes of the Kinase-GLO reagent (Promega V6711) containing an ATP-dependent firefly luciferase were added to all the wells and five minutes later, the luminescence was measured using a plate reader. Eight different concentrations of ATP (0 - 10 μM) were used as standards for a calibration curve to calculate the amount of ATP produced by the different NDPKs.

[1] = tested on: compound-binding proteins such as HDACs, MBLAC2, ISOC1/2, ALDH2, and GATD3A; experiment: chemoproteomic competition assay, proteome-wide target binding profile; design: species or system human; conditions: dose-dependent competition
Procedure: MBLAC2 is a metalloenzyme predicted to harbor one or two Zn^2+ ions in its active site. […] In this assay, compounds of interest are incubated at increasing concentrations with a mixture of lysates of MV4–11 and SW620 cells. The compound-treated lysates are then mixed with bead-immobilized hydroxamic acid-containing compounds iA, iC, and iQ (immobilized Quisinostat), which pull down compound-binding proteins such as HDACs, MBLAC2, ISOC1/2, ALDH2, and GATD3A (Figure a) that can be identified and quantified by mass spectrometry (MS). Proteins targeted by the library compounds in a preincubation step are prevented from being pulled down by the immobilized probes, leading to a dose-dependent reduction in MS signal. Initially, 12 metal-chelating compounds were profiled at two concentrations (10 μM and 100 μM) (Figure S3).
Chemoproteomic competition assays
Sample preparation. For the MBLAC2 and HDAC inhibitor competition assay, the generation of affinity matrices, lysate generation, pulldown assay, and sample preparation were performed as described in detail in REF1. For the kinobeads assay, the generation of affinity matrices, lysate generation, pulldown assay, and sample preparation were performed as described in detail in REF2.
LC-MS/MS. The different sample types were measured with different LC-MS/MS settings. MBLAC2 2-dose competition assays were measured with the Lumos1 setup, MBLAC2 9-dose competition assays were measured with the Lumos2 setup, and kinobeads assays were measured with the Eclipse setup.
Peptides were analyzed via LC–MS/MS on a Dionex Ultimate3000 nano HPLC coupled to either one of two Orbitrap Fusion Lumos mass spectrometers, or to an Orbitrap Eclipse mass spectrometer, operated via the Thermo Scientific Xcalibur software.
In the all setups, peptides were loaded on a trap column (100 μm × 2 cm, packed in-house with Reprosil-Gold C18 ODS-3 5 μm resin, Dr. Maisch, Ammerbuch) and washed with 5 μL/min solvent A (0.1% formic acid in HPLC grade water) for 10 min. Peptides were then separated on an analytical column (75 μm × 40 cm, packed in-house with Reprosil-Gold C18 3μm resin, Dr. Maisch, Ammerbuch) using a 50 min gradient ranging from 4 to 32% solvent B (0.1% formic acid, 5% DMSO in acetonitrile) in solvent A (0.1% formic acid, 5% DMSO in HPLC grade water) at a flow rate of 300 nL/min.
The mass spectrometers were operated in data-dependent mode, automatically switching between MS1 and MS2 spectra. MS1 spectra were acquired over a mass-to-charge (m/z) range of 360–1300 m/z at a resolution of 60,000 (at m/z 200) in the Orbitrap using a maximum injection time of 50 ms and an automatic gain control (AGC) target value of 4e5.
In Lumos settings, up to 12 peptide precursors were isolated in (isolation width of 1.2 Th for Lumos1 and 1.7 for Lumos2, maximum injection time of 75 ms, AGC value of 1e5 for Lumos1 and 2e5 for Lumos2), fragmented by HCD using 30% normalized collision energy (NCE) and analyzed in the Orbitrap at a resolution of 15,000 (Lumos2) or 30,000 (Lumos1). The dynamic exclusion duration of fragmented precursor ions was set to 20 s (Lumos1) or 30 s (Lumos2). In Eclipse measurements, a cycle time of 2 s was chosen. Peptides were isolated in the quadrupole with an isolation offset of 1.2 (isolation width of 1.2 Th, maximum injection time of 54 ms, AGC target of 200%) and fragmented by […]

Toxoplasma gondii = tested on: Toxoplasma gondii; design: method as in PMID 33360687, PMID 35483428, PMID 38431113, PMID 29414107; conditions: in human host cells; cited from earlier work
[2] = tested on: casein kinase 2 (CK2) complex proteins (CSNK2A1/3, CSNK2A2, CSNK2B, EIF3J); experiment: Kinobead competition assay; format: binding, human
Text: The binding of KV-24 and KV-30 to the nucleotide-binding pocket raises the question of whether these compounds also target other nucleotide-binding proteins, such as kinases. To evaluate potential off-target effects, we performed Kinobead competition assays. This chemoproteomic approach is conceptually very similar to the one used here in that broad spectrum kinase inhibitors are immobilized on beads. […] PDE1C is a cAMP/cGMP nucleotide-binding protein that features two divalent metal cation cofactors. The hydroxamic acid moiety of KV-24 might chelate these metal cofactors, supporting the hypothesis that KV-24 binds the active site of PDE1C. […]
Given that local GTP production by NME1 and NME2 is essential for fueling dynamin-driven endocytosis, we investigated the effect of KV-50-mediated NME1/2 inhibition on fluorescent transferrin (TF) uptake in cells. HeLa cells were treated with KV-50 or known endocytosis inhibitors (Pitstop-2 and Dynasore), and surface-bound and internalized fluorescent TF were quantified. […]
LC-MS/MS. The different sample types were measured with different LC-MS/MS settings. MBLAC2 2-dose competition assays were measured with the Lumos1 setup, MBLAC2 9-dose competition assays were measured with the Lumos2 setup, and kinobeads assays were measured with the Eclipse setup. […]

targets / off-targets bound [1]	Compound	effect on NME enzyme activity (recombinant NME1–4)	inhibition of proliferation of protozoans (Toxoplasma gondii)	casein kinase 2 family members binding [2]
bound to HINT1 and NME4	O=C(NO)c1ccc(-c2nc3ccccc3c3ccccc23)cc1 [KV-30]	only modestly reduced NME enzyme activity	potently inhibit the proliferation	
bound to HINT1 and NME4	O=C(NO)c1ccc(-c2nc3ccccc3n3cccc23)cc1 [KV-24]	only modestly reduced NME enzyme activity	potently inhibit the proliferation	reduced binding at two-digit μM concentrations
